Test results as given in PMC3625562, “Rapid Screening of Drug-Protein Binding Using High-Performance Affinity Chromatography with Columns Containing Immobilized Human Serum Albumin” (Journal of Analytical Methods in Chemistry, 2013).
Counter-ions that a name gives are not always drawn. Like-named read-outs stand apart in the source and are kept apart here. Non-standard residues stand in square brackets, D forms with d. Residues, ends and D or L forms follow the SMILES beside them. Phe(4-Cl) = N[CH](Cc1ccc(Cl)cc1)C(=O)O; 2Nal = N[CH](Cc1ccc2ccccc2c1)C(=O)O; 3Pal = N[CH](Cc1cccnc1)C(=O)O

What was measured:
[1] = biological target: T1, immobilized human serum albumin (HSA) (Homo sapiens, UniProt P02768); experiment: Drug-protein binding screening by HPLC on immobilized HSA column (HSA-HPLC); conditions: 0.5 mL/min
Procedure: (§1) Compounds were dissolved with water or water-ethanol (with different ratio) to a concentration of 100 µg/mL. The chromatographic peak was attained on a 5 μm Chiral-HSA, 50 × 3 mm column (Chrom Tech, France), which was preceded by an on-line filter. The ChemStation for LC 3D software was used for data acquiring and handling. As a generic rapid method, an isocratic mobile phase was selected. To simulate physiology environment, a mobile phase consisting of 0.9% NaCl (pH 7.0) at a flow rate of 0.5 mL/min was used. 10 µL aliquot of analyte solution was injected to HPLC to be analyzed.

[2] = system: plasma proteins; conditions: cited from earlier work
[3] = biological target: T1, immobilized human serum albumin (HSA); conditions: pH 7
Procedure: as §1

[4] = biological target: human serum albumin (HSA) (Homo sapiens, UniProt P02768); experiment: Drug-protein binding screening by HPLC on immobilized HSA column (HSA-HPLC); conditions: human, pH 7
Procedure: as §1

[5] = system: plasma proteins; experiment: PPB experiment by ultrafiltration; conditions: plasma, 10, 40, 200, 100, 2000, 100 ng/mL for A, B, C, D, E, F, 37°C 30 min, Microcon YM-30, triplicates; for fraction unbound at 30 min: plasma, PPB by ultrafiltration
Procedure: (§2) PPB Experiment for Test Compounds by Ultrafiltration
(§3) The stock solution (1.0 or 2 mg/mL) of test compounds was prepared by dissolving appropriate amount of compounds in water-methanol (50 : 50, v/v) mixture. Working solution (1, 10 or 100 μg/mL) was attained by diluted stock solution with water. A different volume of the working solution was added to a 2 mL eppendorf vial and evaporated to dryness under a stream of nitrogen in the thermostatically controlled water bath maintained at 55°C for about 20 min. […] The mixture was incubated at 37°C for 30 min. […] The filtrate was analyzed for the drug content by HPLC-MS.
(§4) The concentration of the filtrate was analyzed by HPLC-MS. […] The PPB by ultrafiltration was performed in triplicates for all the compounds studied.

[6] = system: plasma proteins; experiment: in vitro
Procedure: as §2, §3, §4

[7] = reference compounds, Chiral-HSA 50 × 3 mm column, mobile phase 0.9% NaCl (pH 7.0), 100 µg/mL, 10 µL injected
[8] = reported PPB values of reference compounds, ref not printed
[9] = test compounds, Chiral-HSA column, 0.9% NaCl (pH 7.0)

T1 sequence (P02768 25-609): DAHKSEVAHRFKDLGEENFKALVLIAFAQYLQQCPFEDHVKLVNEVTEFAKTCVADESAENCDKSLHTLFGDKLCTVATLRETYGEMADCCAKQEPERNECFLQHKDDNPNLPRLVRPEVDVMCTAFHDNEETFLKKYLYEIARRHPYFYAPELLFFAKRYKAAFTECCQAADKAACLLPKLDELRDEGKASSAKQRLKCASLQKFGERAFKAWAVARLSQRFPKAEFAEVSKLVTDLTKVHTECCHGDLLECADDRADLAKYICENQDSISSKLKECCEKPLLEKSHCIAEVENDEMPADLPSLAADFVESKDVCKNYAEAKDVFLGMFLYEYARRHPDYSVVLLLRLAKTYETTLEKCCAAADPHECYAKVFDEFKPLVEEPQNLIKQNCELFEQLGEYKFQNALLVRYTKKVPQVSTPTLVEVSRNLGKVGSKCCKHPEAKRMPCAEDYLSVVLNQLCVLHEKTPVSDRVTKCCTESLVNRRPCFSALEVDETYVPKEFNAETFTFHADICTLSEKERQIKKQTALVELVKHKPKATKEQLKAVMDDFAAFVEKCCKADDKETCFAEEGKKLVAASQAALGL
human serum albumin (HSA), sequence (P02768 25-609): as above

SMILES	Retention time [1, 7]	PPB from literature [2, 8]	further results
CCOc1ccc(NC(C)=O)cc1 [Phenacetin]	3.19 min	30.0%	–
CCC(=O)O[C@H]1CC[C@H]2[C@@H]3CCC4=CC(=O)CC[C@]4(C)[C@H]3CC[C@]12C [Testosterone propionate]	–	98.0%	Retention time ([3]; human): 0.74 min
CNC(=C[N+](=O)[O-])NCCSCc1ccc(CN(C)C)o1 [Ranitidine hydrochloride]	1.23 min	15.0 (12–18) %	–
CN(C)CCC(c1ccc(Cl)cc1)c1ccccn1 (stereo not shown) [Chlorphenamine maleate]	5.93 min	37.5 (25–50) %	–
CC(C)NCC(O)COc1cccc2ccccc12 (stereo not shown) [Propranolol hydrochloride]	5.21 min	92.5 (90–95) %	PPB from literature ([2]; reported PPB values of reference compounds, ref not printed, listed as propranolol hydrochloride): 90–95%
CCN(CC)Cc1cc(-c2nc3c(Cl)nnc(OC)c3n2C)ccc1O [Comp. C]	–	–	fraction unbound at 100 µg/mL [4]: > 0.1; Retention time [1, 9]: 1.75 min; PPB by ultrafiltration [5]: 51.0%; fraction unbound at 30 min [5]: 0.485
Cc1cc(C)nc(NS(=O)(=O)c2ccc(N)cc2)n1 [Sulfadimidine]	6.22 min	80.0%	–
CC(C)[C@]12O[C@H]1[C@@H]1O[C@]13[C@]1(O[C@H]1C[C@H]1C4=C(CC[C@@]13C)C(=O)OC4)[C@@H]2O [Comp. B]	–	–	Retention time [1, 9]: 1.70 min; fraction unbound at 30 min [5]: 0.784
COc1cc(/C=C/C(=O)O)ccc1O [Ferulic acid]	–	20.6%	Retention time [3]: 1.79 min
Cc1cc(SCc2cnc(-c3ccc(C(F)(F)F)cc3)nc2)ccc1OCC(=O)O [Comp. E]	–	–	fraction unbound at 100 µg/mL [4]: < 0.1; PPB by ultrafiltration [5]: 99.5%; fraction unbound at 30 min [5]: 0.005
O=C1NC(=O)C(c2ccccc2)(c2ccccc2)N1 [Phenytoin sodium]	15.02 min	90.0%	–
Cc1nc(C)c(C)nc1C.Cl [Chuanxiongzine hydrochloride]	–	44.3%	Retention time [3]: 2.23 min
C[C@@](COC12CCN(CC1)CC2)(c1ccccc1)C1CCCC1 [Comp. A]	–	–	Retention time ([3]; human, 100 µg/mL): 0.76 min; fraction unbound [6]: 0.218
CC(=O)OCC(=O)[C@@]1(O)CC[C@H]2[C@@H]3CCC4=CC(=O)CC[C@]4(C)[C@H]3[C@@H](O)C[C@@]21C [Hydrocortisone acetate]	0.73 min	90.0%	–
C[C@@H]1O[C@@H](OC[C@H]2O[C@@H](Oc3c(-c4ccc(O)c(O)c4)oc4cc(O)cc(O)c4c3=O)[C@H](O)[C@@H](O)[C@@H]2O)[C@H](O)[C@H](O)[C@H]1O [Rutoside]	13.43 min	85.0 (80–90) %	PPB from literature ([2]; reported PPB values of reference compounds, ref not printed, listed as rutoside): 80–90%
O=C(O)c1ccccc1O [Salicylic acid]	–	85.0 (80–90) %	–
CN1CCOC(c2ccccc2)c2ccccc2C1 (stereo not shown) [Nefopam hydrochloride]	7.87 min	73.5 (71–76) %	PPB from literature ([2]; reported PPB values of reference compounds, ref not printed, listed as nefopam): 71–76%
Oc1cc(O)c2c(c1)O[C@H](c1ccc(O)c(O)c1)[C@@H](O)C2 [Catechuic acid]	1.94 min	20.7%	–
NS(=O)(=O)c1cc2c(cc1C(F)(F)F)NC(Cc1ccccc1)NS2(=O)=O (stereo not shown) [Bendroflumethiazide]	3.27 min	94.0%	–
Nc1ccc(S(=O)(=O)Nc2ncccn2)cc1 [Sulfadiazine]	1.88 min	43.0 (38–48) %	–
CC(=O)[C@H]1CC[C@H]2[C@@H]3CCC4=CC(=O)CC[C@]4(C)[C@H]3CC[C@]12C [Progesterone]	50.02 min	–	PPB from literature [2]: 97.0%
O=C(O)/C=C/c1ccc(O)c(O)c1 [Caffeic acid]	4.02 min	66.0%	–
O=c1c(O)c(-c2ccc(O)c(O)c2)oc2cc(O)cc(O)c12 [Quercetin]	0.72 min	98.0%	–
COc1cc(C(=O)O)ccc1O [Vanillic acid]	–	56.3%	Retention time ([3]; human, 100 µg/mL): 3.11 min
Cn1c(=O)c2c(ncn2C)n(C)c1=O [Caffeine]	1.18 min	22.5%	–
O=C(C1CCCCC1)N1CC(=O)N2CCc3ccccc3C2C1 (stereo not shown) [Praziquantel]	12.97 min	80.0%	–
CCN(CC)CCOc1ccc(C(=C(Cl)c2ccccc2)c2ccccc2)cc1 [clomifene citrate]	> 240 min	–	–
CC(=O)NC(Cc1ccc2ccccc2c1)C(=O)NC(Cc1ccc(Cl)cc1)C(=O)NC(Cc1ccccc1)C(=O)NC(CO)C(=O)NC(CCCNC(=N)N)C(=O)NC(Cc1cccnc1)C(=O)NC(CC(C)C)C(=O)NC(CCCNC(=N)N)C(=O)N1CCCC1C(=O)NC(C)C(N)=O (stereo not shown) [Comp. F] (Ac-[2Nal][Phe(4-Cl)]FSR[3Pal]LRPA-NH2; configuration not given here)	–	–	Retention time [1, 9]: 0.81 min; PPB by ultrafiltration [5]: 97.2%
OC(Cn1cncn1)(Cn1cncn1)c1ccc(F)cc1F [Fluconazole]	1.07 min	11.5 (11-12) %	–
COC(=O)[C@H]1[C@H]2C[C@@H]3c4[nH]c5cc(OC)ccc5c4CCN3C[C@H]2C[C@@H](OC(=O)c2cc(OC)c(OC)c(OC)c2)[C@@H]1OC [Reserpine]	0.71 min	96.0%	–
